Test results from patent publication US20200390128A1 (Lennham Pharmaceuticals, Inc., priority 2019, published 2020).
Read-outs that look alike come from different tables or passages of the source.

Columns and labels:
[1] = Plasma pharmacokinetics after a single oral (gavage) dose in fasted male Sprague-Dawley rats, LC-MS/MS; conditions: for measurable plasma concentrations: after 2 mg/kg oral; for AUClast / T 1/2 (terminal half life): fasted male Sprague Dawley rats; for Concentration in plasma, Mean: fasted male Sprague-Dawley rats, n = 3/time point;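 for all read-outs here: plasma from heparinized blood sampled up to 14 h post dose, three rats per timepoint, parameters by non-compartmental analysis of mean concentration-time data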
Protocol: (§1) Serial blood samples were collected from three animals per group per timepoint prior to dosing and at 0.25, 0.5, 1, 2, 3 4, 6, 8, 10, 12, and 14-hours post dose.
(§2) Animals were fasted overnight prior to dose administration. Water was provided ad libitum. Food was returned after the collection of the 4-hour samples.
(§3) Doses (rounded to the nearest 0.001 mL) were calculated based on the pretreatment body weight (kg) and a dose volume of 10 mL/kg.
(§4) Serial blood samples (˜300 μL) were collected from three animals per group per timepoint into tubes containing sodium heparin prior to dosing and at 0.25, 0.5, 1, 2, 3, 4, 6, 8, 10, 12, and 14-hours post dose. […] Blood samples were stored on wet ice until being processed for plasma via centrifugation (3500 g for 10 minutes at 5° C.) within 30 minutes of collection.
(§5) The concentration-time data were analyzed to fit an extra-vascular (oral gavage) dosing plasma analysis model (200) using the software WinNonlin Phoenix version 6.3 (Pharsight).
(§6) Half-lives are reported if the correlation for the regression line, as measured by r squared, is ≥0.9, when rounded.

in vivo = conditions: male, Sprague-Dawley, rat, plasma, po, 2 mg/kg
Protocol: as §1, §2, §3, §4, §5, §6

[2] = Brain concentrations and brain pharmacokinetics after a single oral (gavage) dose in fasted male Sprague-Dawley rats, LC-MS/MS; type: in vivo; conditions: for measurable brain concentrations: after 2 mg/kg oral; for concentration at 1 h: 1 hour post dose; for concentration at 4 h: 4 hour post dose; for concentration at 14 h: 14 hour post dose
Protocol: Water was provided ad libitum.
Immediately after the 1, 4, 8 and 14-hour blood collections, three animals/group were euthanized and the brain was dissected out of each rat. The brains were rinsed with saline and dried, placed in pre-weighed conical tubes, and flash frozen in liquid nitrogen. Brain weights were calculated for each sample.

[3] = in words, molecular weight corrected, oral 2 mg/kg, rats
[4] = plasma, molecular weight corrected (caffeine values multiplied by 0.956), oral gavage 2 mg/kg, rats
[5] = male, Sprague-Dawley, rat, brain, po, 2 mg/kg, oral gavage 2 mg/kg, fasted male Sprague-Dawley rats, n = 3/time point
[6] = male, Sprague-Dawley, rat, brain, po, 2 mg/kg, brain, molecular weight corrected (caffeine values multiplied by 0.956), oral gavage 2 mg/kg, rats, read-out: AUClast,corr
[7] = male, Sprague-Dawley, rat, brain, po, 2 mg/kg, brain, molecular weight corrected (caffeine values multiplied by 0.956), oral gavage 2 mg/kg, rats, read-out: Cmax,corr
[8] = male, Sprague-Dawley, rat, brain, po, 2 mg/kg, brain, oral gavage 2 mg/kg, fasted male Sprague Dawley rats, read-out: AUClast
[9] = male, Sprague-Dawley, rat, brain, po, 2 mg/kg, brain, oral gavage 2 mg/kg, fasted male Sprague Dawley rats, read-out: Cmax
[10] = male, Sprague-Dawley, rat, brain, po, 2 mg/kg, oral dose 2 mg/kg, rats, read-out: AUClast in brain
[11] = rat, brain/plasma, oral gavage 2 mg/kg, fasted male Sprague Dawley rats, read-out: Ratio Brain/Plasma Cmax
[12] = rat, brain, oral gavage 2 mg/kg, fasted male Sprague Dawley rats
[13] = rat, brain, oral gavage 2 mg/kg, fasted male Sprague Dawley rats, read-out: Ratio Brain/Plasma AUClast

Structure (SMILES) | measurable plasma concentrations ([1]; in words, rats) | AUCinf, corr [1, 4] [ng·h/mL] | AUClast, corr [1, 4] [ng·h/mL] | AUClast ([1]; plasma, oral gavage 2 mg/kg) [ng·h/mL] | T 1/2 (terminal half life) ([1]; plasma, oral gavage 2 mg/kg) [h] | AUC(0-inf) (in vivo) [ng·h/mL] | AUC(0-t) (in vivo) [ng·h/mL] | Cmax (in vivo) [ng/mL] | Tmax (in vivo) [h] | concentration at 0.25 h (in vivo) [ng/mL] | concentration at 0.5 h (in vivo) [ng/mL] | concentration at 1 h (in vivo) [ng/mL] | concentration at 2 h (in vivo) [ng/mL] | concentration at 3 h (in vivo) [ng/mL] | concentration at 4 h (in vivo) [ng/mL] | half-life (in vivo) [h] | measurable brain concentrations ([2]; in words, rats) | concentration at 1 h [2, 5] [ng/g] | concentration at 4 h [2, 5] [ng/g] | concentration at 14 h [2, 5] [ng/g] | other results
[2H]C([2H])([2H])n1c(=O)c2c(ncn2C([2H])([2H])[2H])n(C([2H])([2H])[2H])c1=O [Compound D9-Caffeine, D9-caffeine] | detected in all animals evaluated at each time point through 14 hours post dose | 27000 | 22000 | 22000 | 5 | 27000 | 22000 | 2400 | 3 | 1720 | 1740 | 2090 | 2340 | 2360 | 2270 | 5 | detected in all animals evaluated at each time point through 14 hours post dose | 1540 | 1640 | 463 | plasma Cmax compared with caffeine [1, 3]: similar; systemic (AUC) exposure in plasma compared with a corresponding dose of caffeine ([1]; in words, oral 2 mg/kg, rats): higher; half-life compared with a corresponding dose of caffeine ([1]; in words, plasma, oral 2 mg/kg, rats): longer; Cmax, corr [1, 4]: 2400 ng/mL; total systemic exposure (AUCinf) higher than caffeine ([1]; plasma, molecular weight corrected, oral 2 mg/kg, rats): approximately 77%; concentration at 6 h (in vivo): 1790 ng/mL; concentration at 8 h (in vivo): 1550 ng/mL; concentration at 12 h (in vivo): 897 ng/mL; concentration at 14 h (in vivo): 682 ng/mL; total brain exposure (AUClast,corr) higher than caffeine ([2]; brain, molecular weight corrected, oral 2 mg/kg, rats): approximately 52%; brain Cmax compared with caffeine [2, 3]: slightly lower; AUC exposure in brain compared with a corresponding dose of caffeine ([2]; in words, oral 2 mg/kg, rats): higher; AUC(0-t) [2, 6]: 16000 ng·h/mL; Cmax [2, 7]: 1600 ng/mL; AUC(0-t) [2, 8]: 16000 ng·h/mL; Cmax [2, 9]: 1600 ng/mL; AUC(0-t) [2, 10]: 16000 ng·h/mL; Kp [2, 11]: 0.67; Tmax [2, 12]: 4 h; Kp [2, 13]: 0.73
Cn1c(=O)c2c(ncn2C)n(C)c1=O [Caffeine, reference compound] | detected in all animals evaluated at each time point through 14 hours post dose | 15296 | 15296 | 16000 | 1.9 | 16000 | 16000 | 2600 | 1 | 2420 | 2410 | 2640 | 2070 | 2030 | 1820 | 1.9 | detected in all animals evaluated at each time point through 14 hours post dose | 1910 | 1210 | 62.6 | Concentration in plasma, Mean ([1]; 8 hour post dose, oral gavage 2 mg/kg): 849 ng/mL; Concentration in plasma, Mean ([1]; 10 hour post dose, oral gavage 2 mg/kg): 344 ng/mL; Concentration in plasma, Mean ([1]; 12 hour post dose, oral gavage 2 mg/kg): 171 ng/mL; Concentration in plasma, Mean ([1]; 14 hour post dose, oral gavage 2 mg/kg): 97.1 ng/mL; concentration at 8 h ([2]; male, Sprague-Dawley, rat, brain, po, 2 mg/kg, 8 hour post dose, oral gavage 2 mg/kg, fasted male Sprague-Dawley rats, n = 3/time point): 553 ng/g; AUC(0-t) [2, 6]: 10500 ng·h/mL; Cmax [2, 7]: 1820 ng/mL; AUC(0-t) [2, 8]: 11000 ng·h/mL; Cmax [2, 9]: 1900 ng/mL; AUC(0-t) [2, 10]: 11000 ng·h/mL; Kp [2, 11]: 0.73; AUC(0-inf) [2, 12]: 11000 ng·h/mL; Tmax [2, 12]: 1 h; Kp [2, 13]: 0.69
